Marks after values point to notes of the source that are not given here.
Legend:
SCC-1 cells [1] = experiment: Necrosis, trypan blue positivity of SCC-1 cells; format: cell-based, human; settings: SCC-1 cultures or supernatants
Procedure: Cell number was recorded either by using the MTS proliferation bioassay (Cell Titer 96 One Solution, Promega, Madison, Wis.) and measuring absorbency after 4 hr on a Biorad (Model 3550) plate reader at 490 nm with a 750 nm background absorbance screening, or by directly counting cells. The MTS assay utilized 10 wells/treatment. For manual counts, cells were harvested by trypsinization with 0.25% trypsin/0.53 mM EDTA, centrif uiged, and counted with a hemacytometer. Cell viability was determined by trypan blue staining. At least two aliquots per well, and 4-10 wells/treatment, were counted at each time for manual counting.

SCC-1 cells [2] = experiment: SCC-1 xenograft in nude mice, tumor growth, survival, termination day measurements (Example 9); settings: for latency time to develop visible tumors: controls 7 days; for Incidence of measurable tumor (day 17) / Incidence of measurable tumor (day 13): mice with tumor/N; for Incidence of measurable tumor (day 13): OGF 10 mg/kg daily and/or paclitaxel 8 mg/kg every other day i.p.; for Metastases: spleen, liver, lymph nodes
Text: Male 4 week old nu/nu nude mice purchased from Harlan Laboratories (Indianapolis, Ind.) were housed in pathogen-free isolators in the Department of Comparative Medicine at the Penn State University College of Medicine. All procedures were approved by the IACUC committee of the Penn State University College of Medicine and conformed to the guidelines established by NIH. Mice were allowed 48 hr to acclimate prior to beginning experimentation.
Tumor cells were inoculated into nude mice by subcutaneous injection into the right scapular region. Subcutaneous injections were performed with at least 2×10^6 cells per mouse; mice were not anesthetized for this procedure.
Dosages were selected based on published reports. […] Injections of drugs were initiated 1 hr after tumor cell inoculation. […] Mice were weighed weekly to determine drug dosage.
Mice were observed daily for the presence of tumors. The latency for a visible tumor to appear, and the time until tumors were measurable (i.e., 62.5 mm^3), were recorded. Tumors were measured using calipers every day. Tumor volume was calculated using the formula w^2×1×π/6, where the length is the longest dimension, and width is the dimension perpendicular to length.
According to institutional policies and IACUC guidelines, mice were terminated when tumors became ulcerated, or tumors grew to 2 cm in diameter. […] Tumors and spleens were removed and weighed, and the lymph nodes, liver, and spleen examined for metastases.

[3] = Plasma levels of OGF by radioimmunoassay, SCC-1 tumor mice; format: in vivo, nude mice; settings: at termination
Procedure: Plasma samples were assayed in duplicate.

SCC-1 SCCHN cells [4] = settings: athymic nude, mouse, in vivo
Procedure: (§3) Tumor dimensions were recorded every day beginning on the day that the tumors were considered measurable.

SCC-1 SCCHN cells [5] = experiment: SCC-1 SCCHN tumors in athymic nude mice (Examples 1c and 2)
Procedure: as §3

MiaPaCa-2 cells [6] = experiment: Gemcitabine and OGF cell cycle phase analysis by flow cytometry; format: cell-based, human; settings: 2 to 24 hours after OGF exposure
Procedure: To investigate the exact cell cycle phase where gemcitabine and/or OGF exerted their effects, flow cytometry was performed.

MiaPaCa-2 cells [7] = experiment: OGF/gemcitabine treatment in athymic nude mouse model (Example 5); format: in vivo, athymic nude mice
Text: To examine the effectiveness of the combined OGF/gemcitabine treatments in vivo, an athymic nude mouse model was used.

MIA PaCa-2 cells = experiment: Growth assays of MIA PaCa-2 cells (MTS assay or cell counting), Example 7; format: cell-based, human; settings: MIA PaCa-2; 96 hr (48 hr after reversal)
Procedure: (§1) MIA PaCa-2 and PANC-1 human pancreatic adenocarcinoma cell lines were purchased from the American Type Culture Collection (Manasass, Va.). MIA PaCa-2 cells were derived from an undifferentiated epithelial carcinoma occurring in the body and tail of the pancreas in a person. The PANC-1 cells were derived from an undifferentiated carcinoma from the head of the pancreas in a person. MIA PaCa-2 and PANC-1 cells were grown in Dulbecco's MEM (modified) media; media was supplemented with 10% fetal calf serum, 1.2% sodium bicarbonate, and antibiotics (5,000 Units/ml penicillin, 5 mg/ml streptomycin, 10 mg/ml neomycin), and the cells were maintained in a humidified atmosphere of 7% CO2/93% air at 37° C.
MIA PaCa-2 cells were seeded at equivalent amounts into either 75 cm^2 flasks, 6-well plates, or 96-well plates (Falcon) and counted 24 hr later to determine plating efficiency. Growth assays for PANC-1 cells were conducted in 6-well plates (Falcon). Compounds or sterile water were added beginning 24 hr after seeding (=0 hr), and both media and compounds were replaced daily. All drugs were prepared in sterile water and dilutions represent final concentrations of the compounds.
(§2) Cell number was recorded either by using a mitogenic bioassay, the MTS assay (Cell Titer 96 One Solution, Promega, Madison, Wis.), and measuring absorbency after 4 hr on a Biorad (Model 3550) plate reader at 490 nm, or by counting cells. For manual counts, cells were harvested with a solution of 0.25% trypsin/0.53 mM EDTA, centrif uiged, and counted with a hemacytometer. Cell viability was determined by trypan blue staining. At least two aliquots per flask or 4-10 wells/treatment were counted at each time.

PANC-1 cells = experiment: Growth assay of PANC-1 cells in 6-well plates; format: cell-based, human; settings: 72 hr, OGF 10^−6 M and/or gemcitabine 10^−8 M
Procedure: as §1
MIA PaCa-2 cells were seeded at equivalent amounts into either 75 cm^2 flasks, 6-well plates, or 96-well plates (Falcon) and counted 24 hr later to determine plating efficiency. […]
as §2

[8] = tested on: advanced unresectable pancreatic adenocarcinoma; settings: some patients; cited from earlier work
MiaPaCa-2 cells [9] = experiment: Growth curves of MiaPaCa-2 cells, cell proliferation (MTT) assay, absorbency; settings: MiaPaCa-2, 5-FU 10^-5 M and/or OGF 10^−6 M
Text: Cells were counted using a standard MTT assay. In general, each data point represents the average absorbency taken from 10 wells/treatment; error bars represent the S.E.M.

[10] = day 50 (paclitaxel group: day each mouse died), means ± SEM

Compound: CC(=O)O[C@H]1C(=O)[C@@]2(C)[C@H]([C@H](OC(=O)c3ccccc3)[C@]3(O)C[C@H](OC(=O)[C@H](O)[C@@H](NC(=O)c4ccccc4)c4ccccc4)C(C)=C1C3(C)C)[C@]1(OC(C)=O)CO[C@@H]1C[C@@H]2O [paclitaxel]
- necrosis, number of trypan blue positive cells versus control (SCC-1 cells [1]): No differences in necrosis
- deaths during the experimental period (SCC-1 cells [2]; 50 days): only one mouse in this group was alive
- latency time to develop visible tumors (SCC-1 cells [2]): comparable
- mice with measurable tumors (SCC-1 cells [2]; day 13): 66%
- mice with measurable tumors (SCC-1 cells [2]; day 17): 83%
- Body Weight, g (SCC-1 cells [2]; [10]): 22.6 ± 0.8***+++^^^ g
- Spleen Weight (SCC-1 cells [2]; [10]): 243 ± 8 mg
- mice that had died by day 40 (SCC-1 cells [2]; male, nu/nu nude, mouse, in vivo, 8 mg/kg, 40 day): 75%
- time within which mice began dying (SCC-1 cells [2]; male, nu/nu nude, mouse, in vivo, 50 days): ≤ 20 days
- Latency to measurable tumor (SCC-1 cells [2]; means ± SEM): 14.8 ± 1.7 days
- Latency to visible tumor (SCC-1 cells [2]; means ± SEM): 7.4 ± 1.4 days
- Incidence of measurable tumor (day 17) (SCC-1 cells [2]): 10/12
- Incidence of measurable tumor (day 13) (SCC-1 cells [2]): 8/12
- body weight subnormal by (SCC-1 cells [2]; mouse, in vivo): 9-10%
- gross observations and pathological findings (SCC-1 cells [2]; mouse, in vivo): distended abdomens, impacted bowel, and severe body weight loss
- Metastases (SCC-1 cells [2]): none
- OGF levels in plasma versus control mice with tumors [3]: No differences
- mice still alive on termination day, % of the group (SCC-1 SCCHN cells [4]; 50 day): 8%
- day on which mice began dying (SCC-1 SCCHN cells [4]; 50 days): 19 days
- average life span (SCC-1 SCCHN cells [5]; 50-day study): 34.3 ± 3.1 days
- mice with tumors (SCC-1 SCCHN cells [5]; day 13 after tumor cell inoculation): 66%
- observations on organs after premature death (SCC-1 SCCHN cells [5]; histological analysis): distended abdomens with associated megacolon
- mice that had died by day 40 (SCC-1 SCCHN cells [5]; nude mice with SCC-1 tumors): 75%
- body weight less than controls (SCC-1 SCCHN cells [5]; nude mice with SCC-1 tumors, day 20): 11%
- body weight less than controls, OGF and paclitaxel/OGF treated mice (SCC-1 SCCHN cells [5]; nude mice with SCC-1 tumors, day 50): 28%

Compound: [Met^5]-enkephalin [OGF]
- increase of cells in the G0/G1 phase of the cell cycle (MiaPaCa-2 cells [6]): no significant increases into the G0/G1 phase
- mice with tumors (MiaPaCa-2 cells [7]; day 16 after tumor cell inoculation): all mice
- tumors smaller than control mice, reduction (MiaPaCa-2 cells [7]; from the 6th timepoint (12th day of measurable tumor)): 29.9-40.7%
- difference in cell number between reversal group and group continuing drug exposure (MIA PaCa-2 cells): 16%
- fewer cells than in control cultures (PANC-1 cells): 31%
- latency time to develop visible tumors (SCC-1 cells [2]): 11 days
- mice with measurable tumors (SCC-1 cells [2]; day 13): 33%
- mice with measurable tumors (SCC-1 cells [2]; day 17): 66%
- tumor volume reduction from control values (SCC-1 cells [2]; day 50): 33%
- Tumor Volume, mm^3 (SCC-1 cells [2]; day 50, means ± SEM): 2590 ± 364* mm^3
- Tumor Weight (SCC-1 cells [2]; day 50, means ± SEM): 1.7 ± 0.2 g
- Latency to measurable tumor (days) (SCC-1 cells [2]; means ± SEM): 17.0 ± 1.5^ days
- Latency to visible tumor (days) (SCC-1 cells [2]; means ± SEM): 11.2 ± 1.5^b days
- Incidence of measurable tumor (day 17) (SCC-1 cells [2]): 8/12
- Incidence of measurable tumor (day 13) (SCC-1 cells [2]): 4/12^a
- delay of visible tumors versus controls (SCC-1 cells [2]; p<0.02): four-day delay
- Metastases (SCC-1 cells [2]): none
- weights of tumors reduced from control levels (SCC-1 cells [2]; termination day (day 50)): 29%
- longest survival of patients [8]: ≤ 23 months
- latency time for measurable (62.5 mm^3) tumors (SCC-1 SCCHN cells [5]; after tumor cell inoculation): ≤ 17 days
- latency to a visible tumor (SCC-1 SCCHN cells [5]; after tumor cell inoculation): ≤ 11 days
- reduction of tumor size versus control mice (SCC-1 SCCHN cells [5]; second timepoint (4th day of measurable tumors)): 26%
- delay in visible tumor development (SCC-1 SCCHN cells [5]; versus control mice): ~4 days
- decrease in cell number from controls (MiaPaCa-2 cells [9]; 24 h): 7.1%
- decrease in cell number from controls (MiaPaCa-2 cells [9]; 48 h): 7.0%
- decrease in cell number from controls (MiaPaCa-2 cells [9]; 72 h): 6.9%
- decrease in cell number from controls (MiaPaCa-2 cells [9]; 96 h): 14.2%

— patent publication US8003630B2, “Combinatorial therapies for the treatment of neoplasias using the opioid growth factor receptor” (The Penn State Research Foundation, priority 2004, dated 2011)
